Assay results: patent publication US8227613B2, “Heteroaryl carboxamide derivatives” (Hoffmann-La Roche Inc., priority 2008, dated 2012)

Target: T1, human chemokine receptor 2 isoform B (CCR2B) (Homo sapiens, UniProt P41597)
T1 construct: host or cells: CHO-K1 (CHOK1-CCR2B-A5)
T1 sequence (P41597 1-360 isoform P41597-2): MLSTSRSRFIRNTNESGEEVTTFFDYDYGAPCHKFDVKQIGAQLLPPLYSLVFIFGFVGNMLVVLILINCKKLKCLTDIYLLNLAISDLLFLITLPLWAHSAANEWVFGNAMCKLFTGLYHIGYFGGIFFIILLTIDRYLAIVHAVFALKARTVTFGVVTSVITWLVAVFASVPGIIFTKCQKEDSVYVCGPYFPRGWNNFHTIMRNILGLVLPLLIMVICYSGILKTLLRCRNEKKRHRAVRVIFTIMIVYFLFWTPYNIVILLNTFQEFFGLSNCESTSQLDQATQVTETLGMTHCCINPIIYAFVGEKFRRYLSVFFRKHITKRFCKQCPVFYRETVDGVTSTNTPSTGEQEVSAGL
Assay: Calcium mobilization assay (FLIPR, MCP-1 stimulated CHOK1-CCR2B-A5 cells)
Type: cell-based
Details: 20 nM MCP-1, antagonist activity, read-out: IC50 (inhibitor concentration required for 50% inhibition of specific calcium increases)
Protocol: Calcium Mobilization Assay
CHOK1-CCR2B-A5 cells (from Euroscreen) stably overexpressing the human chemokine receptor 2 isoform B were cultured in Nutrient Hams F12 medium supplemented with 5% FBS, 100 U/ml penicillin, 100 μg/ml streptomycin, 400 μg/ml G418 and 5 μg/ml puromycin.
For the assay cells were grown overnight in 384-well black clear flat bottom polystyrene plates (Costar) at 37° C. at 5% CO2. After washing with DMEM, 20 mM Hepes, 2.5 mM probenecid, 0.1% BSA (DMEM assay buffer) cells were loaded with 4 μM Fluo-4 in the same DMEM assay buffer for 2 hours at 30° C. Excess dye was removed and cells were washed with DMEM assay buffer. 384-well compound plates were prepared with DMEM assay buffer/0.5% DMSO with or without various concentrations of test compounds. Usually compounds were tested for agonist and antagonist activity.
Test compounds were added to the assay plate and agonist activity was monitored as fluorescence for 80 seconds with a FLIPR (488 nm excitation; 510-570 nm emission; Molecular Devices). After 20-30 min. of incubation at 30° C., 20 nM MCP-1 (R&D; Roche) was added and fluorescence was monitored again for 80 seconds. Increases in intracellular calcium are reported as maximum fluorescence after agonist exposure minus basal fluorescence before exposure. Antagonist activity is indicated as inhibitor concentration required for 50% inhibition of specific calcium increases.

SMILES | IC50 [nM]
COc1ccc(C(F)(F)F)cc1-c1cnc(C(=O)N2CCC(N3CCCC3)CC2)c(C)c1 [Example 33, [5-(2-Methoxy-5-trifluoromethyl-phenyl)-3-methyl-pyridin-2-yl]-(4-pyrrolidin-1-yl-piperidin-1-yl)-methanone] | 16
Cc1cc(-c2ccc(F)c(C(F)(F)F)c2)cnc1C(=O)N1CCC(N2CCCC2)CC1 [Example 34, [5-(4-Fluoro-3-trifluoromethyl-phenyl)-3-methyl-pyridin-2-yl]-(4-pyrrolidin-1-yl-piperidin-1-yl)-methanone] | 59
COc1ccc(-c2cnc(C(=O)N3CCC(N4CCCC4)CC3)c(C)c2)cc1C(F)(F)F [Example 35, [5-(4-Methoxy-3-trifluoromethyl-phenyl)-3-methyl-pyridin-2-yl]-(4-pyrrolidin-1-yl-piperidin-1-yl)-methanone] | 560
Cc1cc(-c2cccc(C(F)(F)F)c2F)cnc1C(=O)N1CCC(N2CCCC2)CC1 [Example 36, [5-(2-Fluoro-3-trifluoromethyl-phenyl)-3-methyl-pyridin-2-yl]-(4-pyrrolidin-1-yl-piperidin-1-yl)-methanone] | 180
Cc1cc(-c2cc(F)cc(C(F)(F)F)c2)cnc1C(=O)N1CCC(N2CCCC2)CC1 [Example 37, [5-(3-Fluoro-5-trifluoromethyl-phenyl)-3-methyl-pyridin-2-yl]-(4-pyrrolidin-1-yl-piperidin-1-yl)-methanone] | 36
Cc1cc(-c2cccc(C(F)(F)F)c2)c(-c2cnc(N)nc2)nc1C(=O)N1CCC(N2CCCC2)CC1 [Example 39, [6-(2-Amino-pyrimidin-5-yl)-3-methyl-5-(3-trifluoromethyl-phenyl)-pyridin-2-yl]-(4-pyrrolidin-1-yl-piperidin-1-yl)-methanone] | 5.8
Cc1cc(-c2cccc(C(F)(F)F)c2)c(-c2ccc(N)nc2)nc1C(=O)N1CCC(N2CCCC2)CC1 [Example 40, [6′-Amino-5-methyl-3-(3-trifluoromethyl-phenyl)-[2,3′]bipyridinyl-6-yl]-(4-pyrrolidin-1-yl-piperidin-1-yl)-methanone] | 3.9
Cc1cc(-c2cccc(C(F)(F)F)c2)c(-c2ccc(O)nc2)nc1C(=O)N1CCC(N2CCCC2)CC1 [Example 41, [6′-Hydroxy-5-methyl-3-(3-trifluoromethyl-phenyl)-[2,3′]bipyridinyl-6-yl]-(4-pyrrolidin-1-yl-piperidin-1-yl)-methanone] | 16
Cc1cc(-c2cccc(C(F)(F)F)c2)c(C#N)nc1C(=O)N1CCC(N2CCCC2)CC1 [Example 42, 5-Methyl-6-(4-pyrrolidin-1-yl-piperidine-1-carbonyl)-3-(3-trifluoromethyl-phenyl)-pyridine-2-carbonitrile] | 26
Cc1cc(-c2cccc(C(F)(F)F)c2)c(C(N)=O)nc1C(=O)N1CCC(N2CCCC2)CC1 [Example 43, 5-Methyl-6-(4-pyrrolidin-1-yl-piperidine-1-carbonyl)-3-(3-trifluoromethyl-phenyl)-pyridine-2-carboxylic acid amide] | 25
COc1ncc(-c2nc(C(=O)N3CCC(N4CCCC4)CC3)c(C)cc2-c2cccc(C(F)(F)F)c2)cn1 [Example 44, [6-(2-Methoxy-pyrimidin-5-yl)-3-methyl-5-(3-trifluoromethyl-phenyl)-pyridin-2-yl]-(4-pyrrolidin-1-yl-piperidin-1-yl)-methanone] | 12
COC(=O)c1nc(C(=O)N2CCC(N3CCCC3)CC2)c(C)cc1-c1cccc(C(F)(F)F)c1 [Example 45, 5-Methyl-6-(4-pyrrolidin-1-yl-piperidine-1-carbonyl)-3-(3-trifluoromethyl-phenyl)-pyridine-2-carboxylic acid methyl ester] | 7.5
Cc1cc(-c2cccc(C(F)(F)F)c2)c(CO)nc1C(=O)N1CCC(N2CCCC2)CC1 [Example 46, [6-Hydroxymethyl-3-methyl-5-(3-trifluoromethyl-phenyl)-pyridin-2-yl]-(4-pyrrolidin-1-yl-piperidin-1-yl)-methanone] | 12
Cc1cc(-c2cccc(C(F)(F)F)c2)c(C(=O)O)nc1C(=O)N1CCC(N2CCCC2)CC1 [Example 47, 5-Methyl-6-(4-pyrrolidin-1-yl-piperidine-1-carbonyl)-3-(3-trifluoromethyl-phenyl)-pyridine-2-carboxylic acid] | 310
Cc1cc(-c2cccc(C(F)(F)F)c2)c(-c2cn[nH]c2)nc1C(=O)N1CCC(N2CCCC2)CC1 [Example 48, [3-Methyl-6-(1H-pyrazol-4-yl)-5-(3-trifluoromethyl-phenyl)-pyridin-2-yl]-(4-pyrrolidin-1-yl-piperidin-1-yl)-methanone] | 12
Cc1cc(-c2cccc(C(F)(F)F)c2)c(-c2cc[nH]n2)nc1C(=O)N1CCC(N2CCCC2)CC1 [Example 49, [3-Methyl-6-(1H-pyrazol-3-yl)-5-(3-trifluoromethyl-phenyl)-pyridin-2-yl]-(4-pyrrolidin-1-yl-piperidin-1-yl)-methanone] | 10
Cc1cc(-c2cccc(C(F)(F)F)c2)c(-c2cnn(C)c2)nc1C(=O)N1CCC(N2CCCC2)CC1 [Example 50, [3-Methyl-6-(1-methyl-1H-pyrazol-4-yl)-5-(3-trifluoromethyl-phenyl)-pyridin-2-yl]-(4-pyrrolidin-1-yl-piperidin-1-yl)-methanone] | 18
Cc1cc(-c2cccc(C(F)(F)F)c2)c(-c2cnccn2)nc1C(=O)N1CCC(N2CCCC2)CC1 [Example 51, [3-Methyl-6-pyrazin-2-yl-5-(3-trifluoromethyl-phenyl)-pyridin-2-yl]-(4-pyrrolidin-1-yl-piperidin-1-yl)-methanone] | 5.5
Cc1cc(-c2cccc(C(F)(F)F)c2)c(-c2ccnn2C)nc1C(=O)N1CCC(N2CCCC2)CC1 [Example 53, [3-Methyl-6-(2-methyl-2H-pyrazol-3-yl)-5-(3-trifluoromethyl-phenyl)-pyridin-2-yl]-(4-pyrrolidin-1-yl-piperidin-1-yl)-methanone] | 15
Cc1cc(-c2cccc(C(F)(F)F)c2)c(-c2cnc(O)nc2O)nc1C(=O)N1CCC(N2CCCC2)CC1 [Example 54, [6-(2,4-Dihydroxy-pyrimidin-5-yl)-3-methyl-5-(3-trifluoromethyl-phenyl)-pyridin-2-yl]-(4-pyrrolidin-1-yl-piperidin-1-yl)-methanone] | 120
Cc1cc(-c2cccc(C(F)(F)F)c2)c(C(=O)NCCO)nc1C(=O)N1CCC(N2CCCC2)CC1 [Example 55, 5-Methyl-6-(4-pyrrolidin-1-yl-piperidine-1-carbonyl)-3-(3-trifluoromethyl-phenyl)-pyridine-2-carboxylic acid (2-hydroxy-ethyl)-amide] | 130
Cc1cc(-c2cccc(C(F)(F)F)c2)c(C(=O)Nc2cccnc2)nc1C(=O)N1CCC(N2CCCC2)CC1 [Example 56, 5-Methyl-6-(4-pyrrolidin-1-yl-piperidine-1-carbonyl)-3-(3-trifluoromethyl-phenyl)-pyridine-2-carboxylic acid pyridin-3-ylamide] | 13
Cc1cc(-c2cccc(C(F)(F)F)c2)c(C(=O)NC2CCN(C(=O)OC(C)(C)C)CC2)nc1C(=O)N1CCC(N2CCCC2)CC1 [Example 57, 4-{[5-Methyl-6-(4-pyrrolidin-1-yl-piperidine-1-carbonyl)-3-(3-trifluoromethyl-phenyl)-pyridine-2-carbonyl]-amino}-piperidine-1-carboxylic acid tert-butyl ester] | 210
CNC(=O)c1nc(C(=O)N2CCC(N3CCCC3)CC2)c(C)cc1-c1cccc(C(F)(F)F)c1 [Example 58, 5-Methyl-6-(4-pyrrolidin-1-yl-piperidine-1-carbonyl)-3-(3-trifluoromethyl-phenyl)-pyridine-2-carboxylic acid methylamide] | 190
Cc1cc(-c2cccc(C(F)(F)F)c2)c(C(=O)N2CCN(C(=O)OC(C)(C)C)CC2)nc1C(=O)N1CCC(N2CCCC2)CC1 [Example 59, 4-[5-Methyl-6-(4-pyrrolidin-1-yl-piperidine-1-carbonyl)-3-(3-trifluoromethyl-phenyl)-pyridine-2-carbonyl]-piperazine-1-carboxylic acid tert-butyl ester] | 490
Cc1cc(-c2cccc(C(F)(F)F)c2)c(C(=O)NC2CCNCC2)nc1C(=O)N1CCC(N2CCCC2)CC1 [Example 60, 5-Methyl-6-(4-pyrrolidin-1-yl-piperidine-1-carbonyl)-3-(3-trifluoromethyl-phenyl)-pyridine-2-carboxylic acid piperidin-4-ylamide] | 290
